According to patent publication US12454521B2, “Targeted protein degradation” (C4 Therapeutics, Inc., priority 2018, dated 2025):
Where a name gives a salt, the structure may show the parent alone.

Target: CRBN-DDB1 (Homo sapiens, UniProt Q96SW2)
Assay: CRBN-DDB1 fluorescence polarization (FP) binding assay
Settings: displacement of Thalidomide-Alexa Fluor or Pomalidomide-fluorescein probe; 400 nM CRBN-DDB1, 5 nM probe, 0.05% pluronic acid, 60 min room temperature; read-out: FP binding to CRBN_DDB1.3 0.05% PA
Method: The measurement of the ability of representative Degrons to bind to CRBN-DDB1 was carried out using an established sensitive and quantitative in vitro fluorescence polarization (FP) based binding assay. (See, I. J. Enyedy et al, J. Med. Chem., 44: […] [2001]). Degrons were dispensed from serially diluted DMSO stock into black 384-well compatible fluorescence polarization plates using an Echo acoustic dispenser. Binding to CRBN-DDB1 was measured by displacement of either a (-)-Thalidomide- Alexa Fluor® or Pomalidomide-fluorescein conjugated probe dye. A 20 μL mixture containing 400 nM CRBN-DDB1 and 5 nM probe dye in 50 mM Hepes, pH 7.4, 200mM NaCl, 1% DMSO and 0.05% pluronic acid-127 acid was added to wells containing Degron and incubated at room temperature for 60 min. Matching control wells excluding CRBN-DDB1 were used to correct for background fluorescence. Plates were read on an Envision plate reader with appropriate FP filter sets. The corrected S (perpendicular) and P (parallel) values were used to calculate fluorescence polarization (FP) with the following equation: FP =1000*(S-G*P)/(S+G*P). The fractional amount of bound probe (FB) to CRBN-DDB1 as a function of Degron concentration was fitted according to Wang; FEBS Letters 360, (1995), 111-114 to obtain fits for parameter offsets and binding constant (KA) of Degron.

Chain of CRBN-DDB1 (Q96SW2 whole entry): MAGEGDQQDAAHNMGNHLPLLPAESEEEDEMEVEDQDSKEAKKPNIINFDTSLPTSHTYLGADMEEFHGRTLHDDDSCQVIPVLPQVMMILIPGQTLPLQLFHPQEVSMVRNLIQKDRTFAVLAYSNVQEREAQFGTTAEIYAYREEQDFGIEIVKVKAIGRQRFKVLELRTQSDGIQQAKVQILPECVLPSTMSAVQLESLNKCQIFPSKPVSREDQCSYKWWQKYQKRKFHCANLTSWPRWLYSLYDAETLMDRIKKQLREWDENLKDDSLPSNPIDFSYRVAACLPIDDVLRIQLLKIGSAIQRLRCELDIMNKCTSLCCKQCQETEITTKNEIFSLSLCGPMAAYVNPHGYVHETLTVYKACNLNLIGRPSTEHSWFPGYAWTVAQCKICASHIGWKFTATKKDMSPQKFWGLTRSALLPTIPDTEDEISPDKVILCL
Chain of CRBN-DDB1 (Q16531 whole entry partner): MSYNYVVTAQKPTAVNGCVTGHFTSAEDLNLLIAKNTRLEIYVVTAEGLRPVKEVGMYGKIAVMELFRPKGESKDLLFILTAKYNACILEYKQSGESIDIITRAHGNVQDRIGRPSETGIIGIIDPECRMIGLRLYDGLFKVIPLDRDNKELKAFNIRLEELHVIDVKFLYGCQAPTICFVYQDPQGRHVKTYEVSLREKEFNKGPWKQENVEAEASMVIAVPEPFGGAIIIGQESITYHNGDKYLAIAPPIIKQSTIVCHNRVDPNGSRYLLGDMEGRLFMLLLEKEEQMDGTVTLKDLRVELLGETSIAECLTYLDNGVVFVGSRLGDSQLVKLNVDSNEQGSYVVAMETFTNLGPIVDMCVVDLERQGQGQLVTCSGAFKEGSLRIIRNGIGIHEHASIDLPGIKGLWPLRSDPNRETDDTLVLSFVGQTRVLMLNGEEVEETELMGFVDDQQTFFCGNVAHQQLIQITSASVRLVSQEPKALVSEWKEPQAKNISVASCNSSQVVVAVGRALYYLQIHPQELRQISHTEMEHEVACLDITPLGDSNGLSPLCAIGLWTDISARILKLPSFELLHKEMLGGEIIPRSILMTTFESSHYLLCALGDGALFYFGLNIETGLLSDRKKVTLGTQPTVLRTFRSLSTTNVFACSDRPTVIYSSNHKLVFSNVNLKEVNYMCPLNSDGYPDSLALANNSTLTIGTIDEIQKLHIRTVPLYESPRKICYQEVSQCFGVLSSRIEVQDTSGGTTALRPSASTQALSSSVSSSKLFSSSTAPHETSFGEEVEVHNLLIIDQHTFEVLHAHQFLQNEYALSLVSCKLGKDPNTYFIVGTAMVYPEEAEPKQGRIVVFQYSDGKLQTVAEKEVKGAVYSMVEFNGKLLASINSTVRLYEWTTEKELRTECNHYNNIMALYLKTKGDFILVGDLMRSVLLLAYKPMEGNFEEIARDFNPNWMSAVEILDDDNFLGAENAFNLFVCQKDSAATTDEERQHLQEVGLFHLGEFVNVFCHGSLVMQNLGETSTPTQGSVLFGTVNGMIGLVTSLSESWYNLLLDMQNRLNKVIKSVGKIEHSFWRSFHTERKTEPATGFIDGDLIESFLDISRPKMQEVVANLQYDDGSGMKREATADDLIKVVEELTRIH

Row | Structure (SMILES) | Kd [µM]
1 | O=C1CCN(c2ccc(N3CCNCC3)cc2)C(=O)N1 [Compound 10, 1-(4-Piperazin-1-yl-phenyl)-dihydro-pyrimidine-2,4-dione hydrochloride] | < 100
2 | O=C1CCN(c2ccc(N3CCNCC3)nc2)C(=O)N1 [Compound 1, 1-(6-(Piperazin-1-yl)pyridin-3-yl)dihydropyrimidine-2,4(1H,3H)-dione Hydrochloride] | < 30
3 | O=C1CCN(c2cccc(C3CCNCC3)c2)C(=O)N1 [Compound 12, 1-(3-Piperidin-4-yl-phenyl)-dihydro-pyrimidine-2,4-dione hydrochloride] | < 100
4 | Cn1nc(N2CCC(=O)NC2=O)c2ccc(Br)cc21 [Compound 2, 1-(6-Bromo-1-methyl-1H-indazol-3-yl)dihydropyrimidine-2,4(1H,3H)-dione] | < 50
5 | O=C1CCN(c2cnn(C3CCNCC3)c2)C(=O)N1 [Compound 8, 1-[1-(4-piperidyl)pyrazol-4-yl]hexahydropyrimidine-2,4-dione] | < 100
6 | O=C1CCN(c2ccc(C3CCNCC3)[nH]c2=O)C(=O)N1 [Compound 7, 1-(2-Oxo-6-(piperidin-4-yl)-1,2-dihydropyridin-3-yl)dihydropyrimidine-2,4(1H,3H)-dione] | < 30
7 | O=C1CCN(Cc2ccc(C3CCNCC3)cc2)C(=O)N1 [Compound 14, 1-(4-(Piperidin-4-yl)benzyl)dihydropyrimidine-2,4(1H,311)-dione TFA] | < 30
8 | O=C1CCN(c2ccc(C3CCNCC3)c(=O)[nH]2)C(=O)N1 [Compound 5, 1-(6-Oxo-5-(piperidin-4-yl)-1,6-dihydropyridin-2-yl)dihydropyrimidine-2,4(1H,3H)-dione Hydrochloride] | < 100
9 | O=C1CCN(c2ccc(C3CCNCC3)cc2)C(=O)N1 [Compound 11, 1-[4-(4-piperidyl)phenyl]hexahydropyrimidine-2,4-dione; hydrochloride] | < 100
10 | O=C(O)CCc1ccc(N2CCC(N3CCC(=O)NC3=O)CC2)cc1 [Compound 6, 3-[4-[4-(2,4-dioxohexahydropyrimidin-1-yl)-1-piperidyl]phenyl]propanoic acid] | < 50
